Laboratory results: US20080058381A1, “COMBINATION OF A CB1 RECEPTOR ANTAGONIST AND OF SIBUTRAMINE, THE PHARMACEUTICAL COMPOSITIONS COMPRISING THEM AND THEIR USE IN THE TREATMENT OF OBESITY” (priority 2000, published 2008)

Tested on: Obese Fa/fa Zucker rats
Assay: Effect on food intake (food consumption) in obese Zucker rats, five days of oral treatment
Type: in vivo, rat
Conditions: daily for 5 days
Experimental: The synergistic effect of the combination of sibutramine and of a CB1 receptor antagonist on food intake was determined according to the following protocol:
Obese Fa/fa Zucker rats aged 7 weeks and originating from Iffa-Credo, France, were used in this study. The rats are housed in individual cages and weighed every day between 8 and 10 o'clock in the morning. The amount of food is also weighed each morning at the same time. This food (M20, Pietrement, France) is changed every day and the rats have free access thereto for 24 hours. All the rats are treated for a week with the vehicle (miglyol 812N and 0.5% methylcellulose/0.2% polysorbate 80) in two consecutive administrations. The rats are treated from the 8th day with the vehicle, the CB1 receptor antagonist (1-[bis(4-chlorophenyl)methyl]-3-[(3,5-difluorophenyl)-(methylsulfonyl)methylene]azetidine) or sibutramine by the oral route (see table below).
The sibutramine is dissolved in a 0.5% methylcellulose/0.2% polysorbate 80 solution and administered at a dose of 3 mg/kg; the CB1 receptor antagonist is dissolved in miglyol 812N (Hüls, Germany) at a dose of 0.6 mg/kg and the two products are administered under a volume of 1 ml/kg. Each group is composed of 12 to 14 animals. […]
The food consumption of each animal is measured every day. The results are expressed as mean amount of food consumed during the 5 days of treatment.

| SMILES | Food consumption during the 5 days of treatment (CB1 receptor antagonist 0.6 mg/kg oral in miglyol (then methylcellulose/polysorbate vehicle), vehicles 25.52 ± 0.30, p < 0.01) | Food consumption during the 5 days of treatment (sibutramine 3 mg/kg oral (after miglyol), mean amount of food consumed, vehicles 25.52 ± 0.30, p < 0.05) |
| --- | --- | --- |
| CS(=O)(=O)C(=C1CN(C(c2ccc(Cl)cc2)c2ccc(Cl)cc2)C1)c1cc(F)cc(F)c1 [CB1 receptor antagonist, 1-[bis(4-chlorophenyl)methyl]-3-[(3,5-difluorophenyl)-(methylsulfonyl)methylene]azetidine] | 24.00 ± 0.24 g |  |
| CC(C)CC(N(C)C)C1(c2ccc(Cl)cc2)CCC1 (centres unmarked) [sibutramine, N-{1-[1-(4-chloro-phenyl)cyclobutyl]-3-methylbutyl}-N,N-dimethylamine] |  | 24.60 ± 0.32 g |
